Residues, ends and D or L forms follow the SMILES beside them. *: point of attachment. Cbz = O=C(OCc1ccccc1)*
Tested on: proteasome
Assay: Incubation of TetR-EGFP-expressed cells with proteasome inhibitor, fluorescence by flow cytometer
Settings: variant TetR-EGFP-expressed cells, 100 μg/ml, 12 hours (FIG. 1C)
Experimental: The cells were treated with trypsin and then recovered. Fluorescence-positive cell rates and the intensity of fluorescence per cell were analyzed by a flow cytometer (BD, FACSCalibur).
These cells were incubated for 12 hours in the presence of 100 μg/ml of proteasome inhibitor MG132.

For `CC(C)C[C@@H](C=O)NC(=O)[C@H](CC(C)C)NC(=O)[C@H](CC(C)C)NC(=O)OCc1ccccc1` [MG132] (Cbz-Leu-Leu-Leu-aldehyde), the change in fluorescence was “marked increase”.

— patent US20090130763A1, “Method of Controlling Degradation of Protein by Tetracycline Antibiotic” (priority 2005, published 2009)
